From BigSolDB 2.1

CNC[C@H](O)c1cccc(O)c1.Cl
solubility (mole fraction)
Conditions | in 2-butoxyethanol | in 2-ethoxyethanol | in 2-methoxyethanol | in 2-propoxyethanol | in DMF | in NMP | in ethanol | in isopropanol | in methanol | in n-propanol
278.15 K | 0.00496 | 0.0254 | 0.114 | 0.00782 | 0.185 | 0.154 | 0.0138 | 0.00201 | 0.0715 | 0.00469
283.15 K | 0.00611 | 0.0305 | 0.122 | 0.01 | 0.198 | 0.161 | 0.0168 | 0.00251 | 0.0811 | 0.00586
288.15 K | 0.00811 | 0.0386 | 0.131 | 0.0132 | 0.21 | 0.169 | 0.0195 | 0.00335 | 0.09 | 0.00728
293.15 K | 0.0102 | 0.0465 | 0.14 | 0.0162 | 0.222 | 0.178 | 0.0233 | 0.00409 | 0.101 | 0.00905
298.15 K | 0.0126 | 0.0553 | 0.147 | 0.0195 | 0.236 | 0.186 | 0.0287 | 0.00492 | 0.111 | 0.0107
303.15 K | 0.016 | 0.0654 | 0.161 | 0.0244 | 0.251 | 0.198 | 0.034 | 0.0062 | 0.123 | 0.0133
308.15 K | 0.0195 | 0.0761 | 0.171 | 0.0304 | 0.265 | 0.208 | 0.0404 | 0.00768 | 0.136 | 0.0163
313.15 K | 0.0248 | 0.0903 | 0.183 | 0.0376 | 0.284 | 0.22 | 0.047 | 0.00931 | 0.15 | 0.0196
318.15 K | 0.0306 | 0.106 | 0.195 | 0.0462 | 0.299 | 0.232 | 0.0554 | 0.0113 | 0.165 | 0.0236
323.15 K | 0.0372 | 0.122 | 0.21 | 0.0566 | 0.315 | 0.246 | 0.0654 | 0.0138 | 0.182 | 0.0282
